# Results from publication PMC9628870 (Journal of Microbiology and Biotechnology, 2022).
# Biological target: T1, Burkholderia pseudomallei L-asparaginase (Burkholderia pseudomallei, UniProt Q63UZ6)
# T1 construct: gene ansB
# Settings: 10 mM substrate, 50 mM Tris-HCl pH 8.6, 37 °C, 10 min
# T1 sequence (Q63UZ6 1-347 limits assumed): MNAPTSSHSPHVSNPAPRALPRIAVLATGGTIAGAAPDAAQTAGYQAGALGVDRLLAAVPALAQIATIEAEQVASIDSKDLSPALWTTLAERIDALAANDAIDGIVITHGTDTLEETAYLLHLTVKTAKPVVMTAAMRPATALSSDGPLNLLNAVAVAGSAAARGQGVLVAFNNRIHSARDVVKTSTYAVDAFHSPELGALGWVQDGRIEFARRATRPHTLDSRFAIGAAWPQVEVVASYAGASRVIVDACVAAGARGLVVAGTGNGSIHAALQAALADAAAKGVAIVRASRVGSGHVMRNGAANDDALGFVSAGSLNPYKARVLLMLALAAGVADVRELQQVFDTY
structure (smiles),measurement,value
NC(=O)C[C@H](N)C(=O)O [L-asparagine],ammonia release by Nessler's reagent,the purified recombinant enzyme displayed the maximum activity and specificity towards the reaction substrate L-asparagine
